Test results reported in patent US20070099871A1, “Bioreductively-activated prodrugs” (ANGIOGENE PHARMACEUTICALS LIMITED, priority 2003, published 2007).
Like-named read-outs stand apart in the source and are kept apart here. One block for each molecule: values may come before it.

What was measured:
[1] = Metabolism in liver homogenates; format: in vitro ADME; conditions: in air, mouse liver homogenate, NADPH, pH 7.4, 37° C.
Experimental: Metabolic stability of the compounds and unfavorable release of the drug by oxic liver can be assessed by using, for example, this assay. Freshly-excised mouse liver (approximately 1 g) was homogenised in 15 ml of ice-cold 50 mmol d-3 potassium phosphate buffer at pH 7.4. The homogenates were centrifuged at 1000 RPM for 10 min and the supernatants stored on ice. The metabolism of […] prodrug in air was performed with 0.5 ml liver homogenate (∫4 mg of protein by Bradford assay) with 100 μmol dm^−3 NADPH in 50 mmol dm^−3 potassium phosphate buffer at pH 7.4 incubated at 37° C. Samples (60 μl) were taken at regular intervals and added to an equivalent volume of acetonitrile, then mixed and centrifuged at 14, 300 RPM for 2 min prior to product analysis by HPLC. In this test the compound of Example 1 produced combretastatin A4 at a rate of only 3 pmol·min^−1·mg protein^−1. In contrast the corresponding compound 1-(4-methoxy-3-(5-nitrothiene-2-yl)methoxy)phenyl-2-(3,4,5-trimethoxy)phenyl-Z-ethene, lacking the key features of the invention produced combretastatin at a greater rate of 20 pmol·min^−1·mg proteins^−1.

A549 cells = assay: Cellular cytotoxicity (Celltiter 96 MTS assay); format: cell-based; conditions: A549, 6 h exposure then 72 h incubation
Excerpt: The cytotoxic or cytostatic properties of compounds of formula (1) and compounds of formula DrXH can be assessed for example, by use, for example, of this assay. The Celltiter 96® Aqueous One Solution Cell Proliferation Assay kit (Promega Corporation, USA) which is a colorimetric method for determining the number of viable cells in proliferation or cytotoxicity assays was used. In this assay the MTS tetrazolium compound (Owen's Reagent) is bioreduced by viable cells into a coloured formazan product which is soluble in tissue culture medium and can be measured by recording absorbance at 490 nm with a 96 well plate reader. A549 cells were seeded in Eagles Minimum Essential Medium supplemented with 10% foetal calf serum and non-essential amino acids at […] on a 96 well plate and allowed to attach for 24 h. Compounds were dissolved in DMSO and diluted with cell culture medium before addition. The cells were exposed to test compound (0 to 2 μmol dm^−3) for 6 h then incubated for a further 72 h. The MTS reagent was added to each well, left for 4 h, then the absorbance measured at 490 nm with a 96 well plate reader. In this assay the compound of Example 1 had no activity at concentrations up to […] whereas combretastatin A4 reduced cell numbers to 50% of control at a concentration of around 250 nM.

[2] = biological target: T1, Supersomal p450 reductase (Homo sapiens, UniProt P16435); assay: Drug release by cytochrome p450 reductase; format: biochemical; conditions: NADPH, pH 7.4, 37° C.
T1 construct: purchased Gentest P244
T1 sequence (P16435 1-677): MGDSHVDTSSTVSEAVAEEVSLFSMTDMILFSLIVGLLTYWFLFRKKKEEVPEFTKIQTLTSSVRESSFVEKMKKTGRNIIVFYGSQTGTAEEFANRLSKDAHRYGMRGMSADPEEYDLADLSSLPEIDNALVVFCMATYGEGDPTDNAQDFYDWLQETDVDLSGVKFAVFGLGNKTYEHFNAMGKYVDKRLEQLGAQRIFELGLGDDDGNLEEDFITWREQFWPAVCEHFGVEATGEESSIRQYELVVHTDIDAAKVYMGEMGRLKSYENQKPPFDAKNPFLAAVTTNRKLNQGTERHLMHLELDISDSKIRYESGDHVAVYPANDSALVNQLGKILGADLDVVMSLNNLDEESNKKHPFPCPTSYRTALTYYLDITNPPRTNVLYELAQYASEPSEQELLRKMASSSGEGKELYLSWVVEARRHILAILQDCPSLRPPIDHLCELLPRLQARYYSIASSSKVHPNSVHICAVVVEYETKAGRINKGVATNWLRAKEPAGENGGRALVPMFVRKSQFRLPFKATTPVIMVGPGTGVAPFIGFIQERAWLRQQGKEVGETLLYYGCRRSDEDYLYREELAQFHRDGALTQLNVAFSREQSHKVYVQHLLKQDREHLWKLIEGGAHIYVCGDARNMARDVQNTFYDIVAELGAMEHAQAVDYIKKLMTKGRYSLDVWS
Experimental: Cytochrome p450 reductase is widely expressed in human tumours as well as in a range of normal tissues and is one of a number of enzymes that can catalyse bioreduction. […] Compounds were dissolved in DMSO to a concentration of 625 μM and 20 μL added to a mixture of 50 mmol dm^−3 potassium phosphate buffer at pH 7.4 (2.4 mL), NADPH (20 μL of a 10 mM solution) and 60 μL of Supersomal™ p450 reductase (Gentest; Catalogue number P244) and incubated at 37° C. For experiments under nitrogen the mixture was degassed with nitrogen for 20 minutes prior to compound addition and overgassed with nitrogen during the incubation. Samples (100 μl) were taken at regular intervals and added to an equivalent volume of acetonitrile, then mixed and centrifuged at 14, 300 RPM for 2 min prior to product analysis by HPLC. In this test the compound of Example 1 produced combretastatin A4 at a rate of […]·min^−1·mg protein^−1 under nitrogen but only 110 pmol·min^−1·mg protein^−1 under air.

SMILES: COc1ccc(/C=C\c2cc(OC)c(OC)c(OC)c2)cc1OCc1ccc([N+](=O)[O-])s1 [1-(4-methoxy-3-(5-nitrothiene-2-yl)methoxy)phenyl-2-(3,4,5-trimethoxy)phenyl-Z-ethene]
Rate of combretastatin A4 production [1]: 20 pmol·min^−1·mg protein^−1

SMILES: COc1ccc(/C=C\c2cc(OC)c(OC)c(OC)c2)cc1OC(C)(C)c1ccc([N+](=O)[O-])s1 [Example 1]
IC50 (A549 cells; Homo sapiens, read-out: No activity at concentrations up to): > 2000 nM | Rate of combretastatin A4 production ([2]; under air): 110 pmol·min^−1·mg protein^−1 | Rate of combretastatin A4 production ([2]; under nitrogen): 710 ppmol·min^−1·mg protein^−1

melting point: 206 to 208 °C
SMILES: CC(C)(Sc1ncnc2[nH]cnc12)c1ccc([N+](=O)[O-])cc1 [Example 4, 6-(2-(4-nitrophenyl)propan-2-ylsulfanyl)-9H-purine]

SMILES: COc1ccc(/C=C\c2cc(OC)c(OC)c(OC)c2)cc1O [combretastatin A4, reference compound]
IC50 (A549 cells; read-out: Concentration reducing cell numbers to 50% of control): ~250 nM
